Source: the NIST ThermoML archive (doi:10.1016/j.jct.2008.06.008)
Values joined by “and” are separate entries in the source; they are usually repeats but may differ in a detail not shown here. Equal values may be shown once. ± gives the expanded uncertainty stated by the source.

Assay: molar heat capacity at constant pressure
Conditions: 298.15 K; 101.33 kPa; Liquid; Large sample (1 g) DSC
With `[2H]C([2H])([2H])C(=O)C([2H])([2H])[2H]` [(D6)-2-propanone] the “molar heat capacity at constant pressure” value was 134.94 ± 2.7 J/K/mol and 133.6 ± 2.7 J/K/mol. With `[2H]C([2H])([2H])S(=O)C([2H])([2H])[2H]` [(methyl sulfoxide)-d6] the “molar heat capacity at constant pressure” value was 165.76 ± 3.3 J/K/mol and 163.87 ± 3.3 J/K/mol. In the case of `[2H]C(=O)N(C([2H])([2H])[2H])C([2H])([2H])[2H]` [N,N-dimethylformamide-d7], the “molar heat capacity at constant pressure” value is reported as 160.5 ± 3.2 J/K/mol and 159.47 ± 3.2 J/K/mol. With `CC(C)=O` [acetone] the “molar heat capacity at constant pressure” value was 122.74 ± 2.5 J/K/mol and 120.73 ± 2.4 J/K/mol. In the case of `[2H]C([2H])([2H])C#N` [acetonitrile-d3], the “molar heat capacity at constant pressure” value is reported as 95.74 ± 1.9 J/K/mol and 95.02 ± 1.9 J/K/mol. With `CC#N` [acetonitrile] the “molar heat capacity at constant pressure” value was 89.62 ± 1.8 J/K/mol and 88.57 ± 1.8 J/K/mol. With `[2H]c1c([2H])c([2H])c([2H])c([2H])c1[2H]` [benzene-d6] the “molar heat capacity at constant pressure” value was 152.18 ± 3 J/K/mol and 149.82 ± 3 J/K/mol. With `c1ccccc1` [benzene] the “molar heat capacity at constant pressure” value was 133.82 ± 2.7 J/K/mol and 132.11 ± 2.6 J/K/mol. In the case of `[2H]C(Cl)(Cl)Cl` [chloroform-d], the “molar heat capacity at constant pressure” value is reported as 114.94 ± 2.3 J/K/mol and 111.98 ± 2.2 J/K/mol. For `[2H]C1([2H])C([2H])([2H])C([2H])([2H])C([2H])([2H])C([2H])([2H])C1([2H])[2H]` [cyclohexane-d12], the “molar heat capacity at constant pressure” value was 185.6 ± 3.7 J/K/mol and 182.57 ± 3.6 J/K/mol. With `C1CCCCC1` [cyclohexane] the “molar heat capacity at constant pressure” value was 154.34 ± 3.1 J/K/mol and 150.73 ± 3 J/K/mol. For `[2H]C([2H])(Cl)Cl` [dichloromethane-d2], the “molar heat capacity at constant pressure” value was 103.08 ± 2.1 J/K/mol and 101.49 ± 2 J/K/mol. In the case of `ClCCl` [dichloromethane], the “molar heat capacity at constant pressure” value is reported as 97.97 ± 2 J/K/mol and 95.61 ± 1.9 J/K/mol. In the case of `C[S+](C)[O-]` [dimethyl sulfoxide], the “molar heat capacity at constant pressure” value is reported as 150.74 ± 3 J/K/mol and 149.05 ± 3 J/K/mol. For `CN(C)C=O` [dimethylformamide], the “molar heat capacity at constant pressure” value was 145.78 ± 2.9 J/K/mol and 144.02 ± 2.9 J/K/mol. With `[2H]C([2H])([2H])O` [methanol-d3] the “molar heat capacity at constant pressure” value was 86.07 ± 1.7 J/K/mol and 84.91 ± 1.7 J/K/mol. For `[2H]OC([2H])([2H])[2H]` [methanol-d4], the “molar heat capacity at constant pressure” value was 89.03 ± 1.8 J/K/mol and 87.75 ± 1.8 J/K/mol. In the case of `CO` [methanol], the “molar heat capacity at constant pressure” value is reported as 80.58 ± 1.6 J/K/mol and 79.07 ± 1.6 J/K/mol. In the case of `[2H]c1c([2H])c([2H])c(C([2H])([2H])[2H])c([2H])c1[2H]` [toluene-d8], the “molar heat capacity at constant pressure” value is reported as 176.77 ± 3.5 J/K/mol and 174.28 ± 3.5 J/K/mol. With `Cc1ccccc1` [toluene] the “molar heat capacity at constant pressure” value was 154.75 ± 3.1 J/K/mol and 152.53 ± 3 J/K/mol. With `ClC(Cl)Cl` [trichloromethane] the “molar heat capacity at constant pressure” value was 112.71 ± 2.2 J/K/mol and 110.74 ± 2.2 J/K/mol.
